From US10414763B2 (CANCER RESEARCH TECHNOLOGY LIMITED, priority 2014, dated 2019)

What follows are compounds tested against T1, full-length human PKCι (Homo sapiens, UniProt P41743) (assay: PKCι IC50 IMAP fluorescence polarisation assay, full-length enzyme, 150 μM ATP). Settings: read-out: IC50 in IMAP assay against full length PKCi at 150 μM ATP.
T1 construct: Recombinant, full-length human PKCι expressed in Sf21 insect cells is also commercially available; purchased EMD Millipore; host or cells: Sf21 insect cells (baculovirus)
T1 sequence (P41743 1-596): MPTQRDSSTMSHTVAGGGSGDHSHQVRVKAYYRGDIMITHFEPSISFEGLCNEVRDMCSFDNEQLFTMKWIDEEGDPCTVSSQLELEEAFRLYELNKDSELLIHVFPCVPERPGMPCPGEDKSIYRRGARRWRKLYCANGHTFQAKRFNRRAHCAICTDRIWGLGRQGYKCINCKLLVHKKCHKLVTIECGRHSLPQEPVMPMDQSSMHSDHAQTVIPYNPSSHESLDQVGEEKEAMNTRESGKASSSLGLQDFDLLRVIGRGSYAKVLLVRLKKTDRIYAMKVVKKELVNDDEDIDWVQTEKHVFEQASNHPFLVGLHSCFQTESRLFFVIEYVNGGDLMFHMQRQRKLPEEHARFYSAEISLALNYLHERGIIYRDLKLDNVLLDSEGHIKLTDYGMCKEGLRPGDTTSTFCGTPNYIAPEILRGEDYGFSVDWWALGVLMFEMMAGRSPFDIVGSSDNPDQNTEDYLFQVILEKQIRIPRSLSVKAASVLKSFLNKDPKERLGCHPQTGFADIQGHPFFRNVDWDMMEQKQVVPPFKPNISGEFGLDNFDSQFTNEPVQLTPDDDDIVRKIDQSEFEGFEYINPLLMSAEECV
Assay type: biochemical
From the text: Assays are based on the ability of PKCι to phosphorylate a commercially available peptide substrate in vitro. The peptide substrate is FAM-PKCε pseudopeptide derived peptide, and comprises the amino acid sequence 5FAM-ERMRPRKRQGSVRRRV-NH2. Recombinant, full-length human PKCι expressed in Sf21 insect cells is also commercially available. Recombinant, kinase-domain human PKCι is expressed and purified in-house.
The procedure below explains how dose response curves for inhibitors of PKCι are obtained. The screen described is for a 384 well format but the assay can be adapted to 1536 or other formats as required.
Compounds to be tested are dissolved in 100% DMSO. Compounds are diluted as required to give a final concentration of 4% DMSO (v/v) in the assay. 1 μl is plated into 384 well black low-binding flat bottomed assay plates which are used immediately. Dilutions and additions of compound to assay plates are carried out using Matrix WellMate® and Matrix PlateMate® Plus liquid handling systems.
On the day of the screen PKCι/substrate working solution, and ATP working solution, are prepared in buffer containing 20 mM tris-HCl pH7.5, 10 mM MgCl2, 0.01% Triton X100, 250 μM EGTA and 1 mM DTT. The final concentration of PKCι used varies depending on the batch of protein but is typically 15 pM. The final concentration of peptide substrate in the assay is 100 nM. ATP is used at a final concentration of 150 μM or 25 μM in the assays containing full-length or kinase-domain PKCι respectively, which corresponds to five times or equal to the KM^APP for ATP for each enzyme, respectively. The final buffer concentration in the assay is 18 mM tris-HCl pH7.5, 9 mM MgCl2, 0.009% Triton X100, 225 μM EGTA and 0.9 mM DTT. Relevant controls are included, namely no compound and no enzyme. 5 μl PKCι/substrate working solution at 30 pM and 200 nM, respectively, is added to the wells, followed by 4 μl ATP working solution at 375 μM or 62.5 μM for full-length or kinase-domain PKCι respectively, using a 16 channel Matrix pipette. The reaction is allowed to incubate for 60 minutes at room temperature, before the reaction is stopped and developed by the addition of 20 μl IMAP™ development reagent (Molecular Devices). IMAP development reagent consists of 0.25% (v/v) IMAP progressive binding reagent, 17% (v/v) IMAP progressive binding buffer A and 3% (v/v) IMAP progressive binding buffer B. The plates are then incubated for 2 hours at room temperature before being read using an appropriate plate reader, for example a Molecular Devices HT Analyst or a BMG Pherastar. Plates are read using a fluorescence polarisation protocol with excitation at 485 nm and emission at 530 nm, and dichroic mirror at 505 nm.
Percentage inhibition values are calculated from fluorescence polarisation values, using the no compound and no enzyme control values as 0% and 100% inhibition, respectively. IC50 determination is performed with ExcelFit software (IDBS) using curve fit 205. Z′ factors are determined for each plate tested and are all above 0.5.
Alternatively, compounds were tested for their ability to inhibit the kinase activity of recombinant human baculovirus-expressed PKCiota using the immobilized metal-ion affinity particle (IMAP®) fluorescence polarization detection system (Molecular Devices, Sunnyvale, Calif.). PKCiota/IMAP® substrate mixture (2×) was prepared in 1×IMAP assay buffer (Molecular Devices) containing 1 mM DTT so that the final assay concentrations were 15 pM PKCiota (EMD Millipore, Billerica, Mass.) and 100 nM 5-fluorescein-amidite (FAM)-PKC ? -pseudosubstrate (5-FAM-ERMRPRKRQGSVRRRV-NH2) (Molecular Devices). The 2× working solution was added at 5 μL/well into a 384-well black, non-binding, flat bottom assay plate (Corning, Corning, N.Y.). […]

Compound	IC50
Cc1cc2c(-c3nc(N(C)C4CCNCC4(C)C)c4c(C5CCC5)cncc4n3)ccnc2[nH]1 (centres unmarked) [Example 116, [5-Cyclobutyl-2-(2-methyl-1H-pyrrolo[2,3-b]pyridin-4-yl)-pyrido[3,4-d]pyrimidin-4-yl]-(3,3-dimethyl-piperidin-4-yl)-methyl-amine]	< 0.1 µM
CN(c1nc(-c2ccnc3[nH]c(-c4cccnc4)cc23)nc2cncc(C3CC3)c12)[C@H]1CCNCC1(C)C [Example 385, [5-Cyclopropyl-2-(2-pyridin-3-yl-1H-pyrrolo[2,3-b]pyridin-4-yl)-pyrido[3,4-d]pyrimidin-4-yl]-((S)-3,3-dimethyl-piperidin-4-yl)-methyl-amine]	< 0.1 µM
NC[C@@H]1CCN(c2nc(-c3ccnc4[nH]c5ccccc5c34)nc3cncc(C4CCC4)c23)C1 [Example 248, C-{(S)-1-[5-Cyclobutyl-2-(9H-pyrido[2,3-b]indol-4-yl)-pyrido[3,4-d]pyrimidin-4-yl]-pyrrolidin-3-yl}-methylamine]	< 0.1 µM
CC1(C)CNCC[C@@H]1Nc1nc(-c2ccnc3[nH]c(-c4cc(F)ccc4Cl)cc23)nc2cncc(C3CC3)c12 [Example 229, {2-[2-(2-Chloro-5-fluoro-phenyl)-1H-pyrrolo[2,3-b]pyridin-4-yl]-5-cyclopropyl-pyrido[3,4-d]pyrimidin-4-yl}-((S)-3,3-dimethyl-piperidin-4-yl)-amine]	< 0.1 µM
CC1(C)CNCC[C@@H]1Nc1nc(-c2ccnc3[nH]c(-c4cccnc4)cc23)nc2cncc(C(F)(F)F)c12 [Example 372, N-[(4S)-3,3-dimethyl-4-piperidyl]-2-[2-(3-pyridyl)-1H-pyrrolo[2,3-b]pyridin-4-yl]-5-(trifluoromethyl) pyrido[3,4-d]pyrimidin-4-amine]	< 0.1 µM
CC(C)(C)c1csc(Nc2cc(-c3nc(N4CCNCC4)c4c(C5CC5)cncc4n3)ccn2)n1 [Example 52, (4-tert-Butyl-thiazol-2-yl)-[4-(5-cyclopropyl-4-pipcrazin-1-yl-pyrido[3,4-d]pyrimidin-2-yl)-pyridin-2-yl]-amine]	0.1 to 1 µM
CC1(C)CNCC[C@@H]1Nc1nc(-c2ccnc(Nc3ccc(F)cn3)c2)nc2cncc(C3CCC3)c12 [Example 389, {5-Cyclobutyl-2-[2-(5-fluoropyridin-2-ylamino)-pyridin-4-yl]-pyrido[3,4-d]pyrimidin-4-yl}-((S)-3,3-dimethyl-piperidin-4-yl)-amine]	< 0.1 µM
CN(c1nc(-c2ccnc3[nH]c4ccccc4c23)nc2cncc(C3CCC3)c12)C1CCCNCC1 (centres unmarked) [Example 44, Azepan-4-yl-[5-cyclobutyl-2-(9H-pyrido[2,3-b]indol-4-yl)-pyrido[3,4-d]pyrimidin-4-yl]-methyl-amine]	< 0.1 µM
CC(C)(C)c1nc(-c2cc3c(-c4nc(N5CC[C@H]6NCC[C@H]65)c5c(C6CC6)cncc5n4)ccnc3[nH]2)cs1 (racemic) [Example 34, (±)-2-[2-(2-tert-Butyl-thiazol-4-yl)-1H-pyrrolo[2,3-b]pyridin-4-yl]-5-cyclopropyl-4-(3,6-cis)-hexahydro-pyrrolo[3,2-b]pyrrol-1-yl-pyrido[3,4-d]pyrimidine]	< 0.1 µM

Further lines, results first:

IC50	Compound
< 0.1 µM	CC1(C)CNCC[C@@H]1Nc1nc(-c2ccnc3[nH]c(C(=O)NC4CCCCC4)cc23)nc2cncc(C3CC3)c12 [Example 355, 4-[5-Cyclopropyl-4-((S)-3,3-dimethyl-piperidin-4-ylamino)-pyrido[3,4-d]pyrimidin-2-yl]-1H-pyrrolo[2,3-b]pyridine-2-carboxylic acid cyclohexylamide]
1 to 10 µM	O[C@@H]1CCN(c2nc(-c3ccnc4[nH]c5ccccc5c34)nc3cncc(C4CCC4)c23)C1 [Example 252, (R)-1-[5-Cyclobutyl-2-(9H-pyrido[2,3-b]indol-4-yl)-pyrido[3,4-d]pyrimidin-4-yl]-pyrrolidin-3-ol]
< 0.1 µM	OC1CNCCC(Nc2nc(-c3ccnc4[nH]c5ccccc5c34)nc3cncc(C(F)(F)F)c23)C1 (centres unmarked) [Example 219, 5-[2-(9H-Pyrido[2,3-b]indol-4-yl)-5-trifluoromethyl-pyrido[3,4-d]pyrimidin-4-ylamino]-azepan-3-ol]
< 0.1 µM	Clc1ccccc1-c1cc2c(-c3nc(N4CCC5NCCCC54)c4c(C5CC5)cncc4n3)ccnc2[nH]1 (centres unmarked) [Example 129, 2-[2-(2-Chloro-phenyl)-1H-pyrrolo[2,3-b]pyridin-4-yl]-5-cyclopropyl-4-(octahydro-pyrrolo[3,2-b]pyridin-1-yl)-pyrido [3,4-d]pyrimidine]
< 0.1 µM	CN(c1nc(-c2ccnc3[nH]c4ccccc4c23)nc2cncc(C(F)(F)F)c12)C1CC(N)C(O)C1 (centres unmarked) [Example 220, 2-Amino-4-{methyl-[2-(9H-pyrido[2,3-b]indol-4-yl)-5-trifluoromethyl-pyrido[3,4-d]pyrimidin-4-yl]-amino}-cyclopentanol]
< 0.1 µM	OC1CNCCCC1Nc1nc(-c2ccnc3[nH]c4ccccc4c23)nc2cncc(C3CCC3)c12 (centres unmarked) [Example 73, 4-[5-Cyclobutyl-2-(9H-pyrido[2,3-b]indol-4-yl)-pyrido[3,4-d]pyrimidin-4-ylamino]-azepan-3-ol]
< 0.1 µM	c1cc(-c2nc(N3CCNCC3)c3c(C4CC4)cncc3n2)cc(Nc2nc3n(n2)CCCC3)n1 [Example 205, [4-(5-Cyclopropyl-4-piperazin-1-yl-pyrido[3,4-d]pyrimidin-2-yl)-pyridin-2-yl]-(5,6,7,8-tetrahydro-[1,2,4]triazolo[1,5-a]pyridin-2-yl)-amine]
< 0.1 µM	Cc1ccc(-c2cc3c(-c4nc(N5CCNCC5)c5c(C6CC6)cncc5n4)ccnc3[nH]2)o1 [Example 42, 5-Cyclopropyl-2-[2-(5-methyl-furan-2-yl)-1H-pyrrolo[2,3-b]pyridin-4-yl]-4-piperazin-1-yl-pyrido[3,4-d]pyrimidine]
< 0.1 µM	CNC(=O)c1cc2c(-c3nc(N4CCNCC4)c4c(C5CC5)cncc4n3)ccnc2[nH]1 [Example 79, 4-(5-Cyclopropyl-4-piperazin-1-yl-pyrido[3,4-d]pyrimidin-2-yl)-1H-pyrrolo[2,3-b]pyridine-2-carboxylic acid methylamide]
< 0.1 µM	CC1(C)CNCC[C@@H]1Nc1nc(-c2ccnc(Nc3cc(F)ccn3)c2)nc2cncc(C3CC3)c12 [Example 392, {5-Cyclopropyl-2-[2-(4-fluoro-pyridin-2-ylamino)-pyridin-4-yl]-pyrido[3,4-d]pyrimidin-4-yl}-((S)-3,3-dimethyl-piperidin-4-yl)-amine]
0.1 to 1 µM	OC[C@H]1CNCCN1c1nc(-c2ccnc3[nH]c(C(F)(F)F)cc23)nc2cncc(C3CC3)c12 [Example 6, {(R)-1-[5-Cyclopropyl-2-(2-trifluoromethyl-1H-pyrrolo[2,3-b]pyridin-4-yl)-pyrido[3,4-d]pyrimidin-4-yl]-piperazin-2-yl}-methanol]
